Reference: patent US9480676B2, “Use of PDE4 inhibitors and combinations thereof for the treatment of cystic fibrosis” (Celgene Corporation, priority 2014, dated 2016)
pIC50: −log10 of the molar value. Where “and” joins values, the source holds several entries; their conditions need not be identical. Equal entries are not always repeated.

Tested on: PDE4
Assay: Inhibition of PDE4 (enzyme purified from U937 human monocytic cells)
Format: biochemical
Details: 1 μM cAMP plus 10 nM [3H]-cAMP, 45 min at 30° C.
Method: Phosphodiesterase 4 enzyme was purified from U937 human monocytic cells by gel filtration chromatography, and phosphodiesterase reactions were carried out as previously described. See, e.g., Muller et al., Bioorg. Med. Chem. Lett., 1998, 8(19): 2669-2674. Briefly, reactions were carried out in 96-well deep-well plates in 50 mM Tris HCl pH 7.5, 5 mM MgCl2, 1 μM cyclic adenosine monophosphate (cAMP), plus 10 nM [^3H]-cAMP for 45 min at 30° C. The reactions were terminated by boiling, treated with 1 mg/ml snake venom, and separated using AG-1X8 ion exchange resin (BioRad). Reactions consumed less than 15% of available substrate. […] Compound B inhibited PDE4 with an IC50 of 100 nM.

Q: How did the pIC50 turn out when `CCOc1cc([C@@H](CS(C)(=O)=O)N2C(=O)c3cccc(NC(C)=O)c3C2=O)ccc1OC` [Compound A1, (S)—N-(2-(1-(3-ethoxy-4-methoxyphenyl)-2-(methylsulfonyl)ethyl)-1,3-dioxoisoindolin-4-yl)acetamide] was run?
A: 7.13 and ~7.13

Q: How did the pIC50 turn out when `CCOc1cc([C@@H](CS(C)(=O)=O)N2Cc3cccc(NC(=O)C4CC4)c3C2=O)ccc1OC` [Compound B, (S)—N-(2-(1-(3-ethoxy-4-methoxyphenyl)-2-(methylsulfonyl)ethyl)-3-oxoisoindolin-4-yl)cyclopropanecarboxamide] was run?
A: 7.00 and ~7.00
